Values quoted from earlier work as cited in patent US20080102081A1, “Preparations and applications for treatment of high cholesterol levels” (priority 2006, published 2008).

How the values were obtained:
[1] = clinical trials, patients at lower dosages
[2] = denominator of prescription volume

Row | Compound | elevation of hepatic enzyme activity [1] [%] | fatal rhabdomyolysis rate [2]
1 | CC(C)c1c(C(=O)Nc2ccccc2)c(-c2ccccc2)c(-c2ccc(F)cc2)n1CC[C@@H](O)C[C@@H](O)CC(=O)O [Atorvastatin] | 0.7 | 
2 | COCc1c(C(C)C)nc(C(C)C)c(/C=C/[C@@H](O)C[C@@H](O)CC(=O)O)c1-c1ccc(F)cc1 [Cerivastatin] |  | 3.16 fatal cases/million prescriptions
